Assay [1] deals with dopaminergic receptors D3 (Homo sapiens, UniProt P35462). Kind of assay: Radioligand binding assay, dopaminergic D3 receptors. As to conditions: test compound 1×10^−6 M. The method, boiled down: (§1)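 Scintillation read-out. Specific = total − nonspecific (excess cold ligand). Data as % of control specific binding / % inhibition; IC50 by Hill fit; Ki = IC50/(1+L/KD), KD from Scatchard plot.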

In assay [2] the target is T1, 5-HT1A receptor (rat hippocampus) (Rattus norvegicus, UniProt P19327).
T1 construct: hippocampus; from tissue; host or cells: rat hippocampus
T1 sequence (P19327 1-422): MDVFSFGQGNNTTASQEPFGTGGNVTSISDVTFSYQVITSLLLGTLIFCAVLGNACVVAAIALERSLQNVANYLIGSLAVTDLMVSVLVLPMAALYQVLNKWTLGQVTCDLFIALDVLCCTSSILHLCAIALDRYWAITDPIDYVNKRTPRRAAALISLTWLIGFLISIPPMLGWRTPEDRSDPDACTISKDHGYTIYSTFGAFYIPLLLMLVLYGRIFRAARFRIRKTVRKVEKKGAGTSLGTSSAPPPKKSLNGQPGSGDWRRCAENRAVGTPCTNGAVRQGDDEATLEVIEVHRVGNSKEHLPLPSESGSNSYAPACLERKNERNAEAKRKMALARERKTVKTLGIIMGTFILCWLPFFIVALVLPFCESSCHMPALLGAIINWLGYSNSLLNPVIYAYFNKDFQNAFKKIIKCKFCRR
In words: Radioligand binding assay, serotoninergic 5-HT1A receptors.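 Note: test compound at 1 µM.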 To be noted: binding assay result in %, Table 5a.

For assay [3], the target named is T2, serotonin transporter (SERT) (Homo sapiens, UniProt P31645).
T2 construct: expressed in transfected cells; host or cells: CHO cells
T2 sequence (P31645 whole entry): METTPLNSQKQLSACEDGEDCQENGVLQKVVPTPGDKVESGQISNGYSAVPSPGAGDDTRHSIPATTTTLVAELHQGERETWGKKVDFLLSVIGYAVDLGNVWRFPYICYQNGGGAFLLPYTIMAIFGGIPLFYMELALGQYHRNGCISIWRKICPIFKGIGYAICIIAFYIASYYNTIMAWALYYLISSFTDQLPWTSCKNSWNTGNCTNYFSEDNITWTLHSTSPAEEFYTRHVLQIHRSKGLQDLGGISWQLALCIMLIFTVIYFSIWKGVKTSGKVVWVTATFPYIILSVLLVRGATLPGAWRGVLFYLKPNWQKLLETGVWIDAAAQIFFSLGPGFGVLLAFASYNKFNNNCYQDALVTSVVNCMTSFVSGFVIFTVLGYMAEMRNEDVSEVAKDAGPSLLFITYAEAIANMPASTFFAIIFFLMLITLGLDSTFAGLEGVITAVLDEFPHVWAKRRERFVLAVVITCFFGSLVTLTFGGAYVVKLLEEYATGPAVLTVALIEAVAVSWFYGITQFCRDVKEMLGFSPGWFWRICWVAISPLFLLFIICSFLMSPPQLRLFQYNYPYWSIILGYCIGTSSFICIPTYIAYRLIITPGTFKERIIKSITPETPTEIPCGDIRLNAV
In words: Radioligand binding assay, serotonin transporter (SERT). As to conditions: binding assay, test compound 1×10^−6 M. The method, boiled down:
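Values are derived from competition curves fitted by the Hill equation to give IC50, then converted to Ki by Cheng-Prusoff with radioligand Kd from Scatchard analysis. Specific binding equals total minus non-specific (excess cold ligand), counted by scintillation, and is also expressed as percent inhibition of control.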

Assay [4] concerns α1 adrenergic receptors (rat cerebral cortex). In words: Radioligand binding assay, adrenergic α1 receptors. As to conditions: test compound 1×10^−6 M. The method, boiled down: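 Values derive from radioligand displacement, with non-specific binding defined by excess cold ligand and detection by scintillation. Hill-fit IC50s were converted to Ki via Cheng-Prusoff using Scatchard-derived Kd; percent inhibition of control specific binding also reported.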

In assay [5] the target is T3, 5-HT7 receptor (Homo sapiens, UniProt P34969).
T3 construct: purchased PerkinElmer
T3 sequence (P34969 whole entry): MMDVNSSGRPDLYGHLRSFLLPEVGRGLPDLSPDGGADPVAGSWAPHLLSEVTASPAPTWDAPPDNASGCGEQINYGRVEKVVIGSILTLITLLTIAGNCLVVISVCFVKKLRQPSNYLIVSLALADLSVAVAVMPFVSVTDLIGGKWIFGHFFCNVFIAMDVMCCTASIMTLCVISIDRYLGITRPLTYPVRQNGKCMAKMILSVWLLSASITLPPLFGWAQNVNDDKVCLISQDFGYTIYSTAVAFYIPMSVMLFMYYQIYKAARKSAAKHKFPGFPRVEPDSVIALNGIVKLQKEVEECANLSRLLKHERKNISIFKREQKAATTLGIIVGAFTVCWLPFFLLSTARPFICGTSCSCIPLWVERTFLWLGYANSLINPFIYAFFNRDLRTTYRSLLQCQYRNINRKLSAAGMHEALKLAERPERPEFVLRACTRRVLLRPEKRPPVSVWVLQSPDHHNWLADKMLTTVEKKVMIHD
Kind of assay: Radioligand binding assay, serotoninergic 5-HT7 receptors.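 Note: test compound at 1 µM.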 As to conditions: binding assay result in %, Table 5a. The method, boiled down: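 Ki values used the Cheng–Prusoff equation, with KD from Scatchard analysis, applied to IC50 from Hill fits of human 5-HT7 radioligand competition curves. Bound radioligand was counted by scintillation, and excess unlabelled ligand set the non-specific binding.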

For assay [6], the target named is dopaminergic receptors D2 (Homo sapiens, UniProt P14416). In words: Radioligand binding assay, dopaminergic D2 receptors. As to conditions: binding assay, test compound 1×10^−6 M. The method, boiled down:
as §1

Assay [7] has as its target T4, 5-HT6 receptor (Homo sapiens, UniProt P50406).
T4 construct: purchased PerkinElmer
In words: Radioligand binding assay, serotoninergic 5-HT6 receptors.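 Note: test compound at 1 µM.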 To be noted: binding assay result in %, Table 5a. The method, boiled down: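 Values are Ki from Cheng–Prusoff, taking IC50 from Hill nonlinear regression of competition curves and KD from a Scatchard plot. Specific binding was total minus binding with excess unlabelled ligand. Radioligand displacement was detected by scintillation counting, and data were also reported as percent of control specific binding.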

Assay [8] deals with T5, 5-HT2A receptor (Homo sapiens, UniProt P28223).
T5 construct: purchased PerkinElmer
T5 sequence (P28223 whole entry): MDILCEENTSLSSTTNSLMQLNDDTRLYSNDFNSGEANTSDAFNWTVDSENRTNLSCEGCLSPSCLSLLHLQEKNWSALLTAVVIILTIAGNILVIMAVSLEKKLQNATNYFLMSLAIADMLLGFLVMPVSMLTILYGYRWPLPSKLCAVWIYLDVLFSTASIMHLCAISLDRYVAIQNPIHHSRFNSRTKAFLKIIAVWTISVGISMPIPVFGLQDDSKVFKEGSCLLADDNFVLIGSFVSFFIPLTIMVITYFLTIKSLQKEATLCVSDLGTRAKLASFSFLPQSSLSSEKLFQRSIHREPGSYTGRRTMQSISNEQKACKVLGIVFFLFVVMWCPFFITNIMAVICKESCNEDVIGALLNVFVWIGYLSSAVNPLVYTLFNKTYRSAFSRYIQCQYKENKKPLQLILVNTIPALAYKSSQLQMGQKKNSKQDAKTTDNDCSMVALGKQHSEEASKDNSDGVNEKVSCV
Kind of assay: Radioligand binding assay, serotoninergic 5-HT2A receptors. As to conditions: binding assay result in %, Table 5a. The method, boiled down:
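Competition curves from scintillation-counted specific binding (total minus binding with excess unlabelled ligand) were Hill-fitted to give IC50, converted to Ki via Cheng-Prusoff using Scatchard-derived Kd.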

Chain of dopaminergic receptors D3 (P35462 whole entry): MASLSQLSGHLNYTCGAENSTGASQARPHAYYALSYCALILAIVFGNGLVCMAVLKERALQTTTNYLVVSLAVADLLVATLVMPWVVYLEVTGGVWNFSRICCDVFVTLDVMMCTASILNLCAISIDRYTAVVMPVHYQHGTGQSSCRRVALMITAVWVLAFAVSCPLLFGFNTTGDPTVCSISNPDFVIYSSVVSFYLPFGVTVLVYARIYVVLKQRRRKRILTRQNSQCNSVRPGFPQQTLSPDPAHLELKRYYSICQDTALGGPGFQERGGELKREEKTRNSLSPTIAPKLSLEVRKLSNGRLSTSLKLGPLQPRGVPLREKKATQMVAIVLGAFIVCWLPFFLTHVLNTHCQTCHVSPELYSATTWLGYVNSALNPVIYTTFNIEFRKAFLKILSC
Chain of dopaminergic receptors D2 (P14416 whole entry): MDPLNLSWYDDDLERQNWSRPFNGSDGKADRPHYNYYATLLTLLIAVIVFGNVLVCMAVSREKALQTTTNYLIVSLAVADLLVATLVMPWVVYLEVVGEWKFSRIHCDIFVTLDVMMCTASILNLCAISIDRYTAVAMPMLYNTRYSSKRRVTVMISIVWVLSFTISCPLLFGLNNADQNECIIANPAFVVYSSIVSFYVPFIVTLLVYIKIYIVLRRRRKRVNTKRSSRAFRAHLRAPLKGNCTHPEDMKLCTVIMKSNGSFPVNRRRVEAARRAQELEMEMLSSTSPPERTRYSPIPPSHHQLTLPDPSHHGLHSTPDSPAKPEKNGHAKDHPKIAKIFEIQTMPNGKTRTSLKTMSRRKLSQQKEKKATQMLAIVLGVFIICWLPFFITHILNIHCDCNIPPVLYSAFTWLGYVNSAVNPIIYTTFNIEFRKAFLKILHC
T4 sequence (P50406 whole entry): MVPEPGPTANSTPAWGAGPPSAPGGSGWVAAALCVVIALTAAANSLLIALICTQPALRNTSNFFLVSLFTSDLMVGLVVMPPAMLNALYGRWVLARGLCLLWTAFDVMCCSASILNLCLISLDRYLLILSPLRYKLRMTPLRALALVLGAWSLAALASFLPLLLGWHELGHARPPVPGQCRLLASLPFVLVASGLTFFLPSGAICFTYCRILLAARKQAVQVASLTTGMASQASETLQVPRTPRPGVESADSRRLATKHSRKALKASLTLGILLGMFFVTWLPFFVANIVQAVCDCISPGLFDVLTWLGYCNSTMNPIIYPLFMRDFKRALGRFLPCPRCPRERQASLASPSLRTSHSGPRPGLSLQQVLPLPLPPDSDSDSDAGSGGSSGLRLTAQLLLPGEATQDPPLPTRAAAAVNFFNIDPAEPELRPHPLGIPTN

With `O=S(=O)(NC1CCN(CCOc2cccc3ccccc23)CC1)c1ccc2ccccc2c1` [Compound 120, N-[1-[2-(1-Naphthyloxy)ethyl]-4-piperidine]naphthalene-2-sulphonamide], the “D3 [%]” value in assay [1] is 30%. The “5-HT1A [%]” value in assay [2] is on record as 8%. For the same compound, the “SERT [%]” value in assay [3] turned out to be 21%. Further, in assay [4], the “α1 [%]” value was −9%. In addition, in assay [5], the “5-HT7 [%]” value turned out to be 89%. In assay [6], the “D2 [%]” value is −33%. In addition, the “5-HT6 [%]” value in assay [7] is reported as 24%. Moreover, the “5-HT2A [%]” value in assay [8] was 68%.

As a reminder, the inhibition is the drop in the measured response relative to a control, in per cent. For the compound `O=S(=O)(NCC1CCN(CCOc2cccc3ccccc23)C1)c1cccc(O)c1` (centres unmarked) [Compound 123, 3-Hydroxy-N-[[1-[2-(1-naphthyloxy)ethyl]pyrrolidin-3-yl]methyl]-benzenesulphonamide], the inhibition at 1 µM in assay [1] is 86%; in assay [2], 99%; in assay [3], 83%; in assay [5], 88%; in assay [6], 38%; in assay [7] it was 72%. Besides, the inhibition at 1 µM in assay [8] was determined as 64%. Moreover, the “α1 [%]” value in assay [4] came to 43%.

Take `Cn1ccc2cc(S(=O)(=O)NCC3CN(CCCc4noc5cc(F)ccc45)C3)ccc21` [Compound 150, N-[[1-[3-(6-Fluoro-1,2-benzoxazol-3-yl)propyl]azetidin-3-yl]methyl]-1-methyl-indole-5-sulphonamide]: the inhibition at 1 µM in assay [1] was 60%; in assay [2] it was -9%; in assay [3], 12%; in assay [5], 84%; in assay [6] it was 53%; in assay [7] it was 65%. Moreover, the inhibition at 1 µM in assay [8] stood at 85%. Besides, the “α1 [%]” value in assay [4] is 98%.

On to `O=S(=O)(NCC1CN(CCCc2c[nH]c3ccc(F)cc23)C1)c1ccc2ccccc2c1` [Compound 160, N-[[1-[3-(5-Fluoro-1H-indol-3-yl)propyl]azetidin-3-yl]methyl]naphthalene-2-sulphonamide], for which the inhibition at 1 µM was determined as 87% in assay [1]; 76% in assay [2]; 100% in assay [3]; 75% in assay [5]; 86% in assay [6]; 83% in assay [7]. The inhibition at 1 µM in assay [8] is 97%. Besides, in assay [4], the “α1 [%]” value came out at 49%.

For the compound `O=S(=O)(NCC1CN(CCCc2c[nH]c3ccc(Cl)cc23)C1)c1ccc2ccccc2c1` [Compound 161, N-[[1-[3-(5-Chloro-1H-indol-3-yl)propyl]azetidin-3-yl]methyl]naphthalene-2-sulphonamide], the inhibition at 1 µM in assay [1] was determined as 75%; in assay [2], 86%; in assay [3] it was 66%; in assay [5] it was 83%; in assay [6] it was 84%; in assay [7], 87%. In addition, the inhibition at 1 µM in assay [8] was found to be 88%. Also, in assay [4], the “α1 [%]” value is given as 46%.

As for `O=S(=O)(NCC1CN(CCOc2nsc3ccccc23)C1)c1ccc2ccccc2c1` [Compound 162, N-[[1-[2-(1,2-Benzothiazol-3-yloxy)ethyl]azetidin-3-yl]methyl]-naphthalene-2-sulphonamide], the inhibition at 1 µM in assay [1] is 100%; in assay [2] it was 85%; in assay [3] it was -9%; in assay [5], 91%; in assay [6], 61%; in assay [7] it was -56%. For the same compound, the inhibition at 1 µM in assay [8] is -17%. In addition, the “α1 [%]” value in assay [4] is given as 83%.

`O=S(=O)(NCC1CN(CCOc2cccc3ccccc23)C1)c1cc2ccccc2s1` [Compound 163, N-[[1-[2-(1-Naphthyloxy)ethyl]azetidin-3-yl]methyl]benzothiophene-2-sulphonamide]: the inhibition at 1 µM in assay [1] came to 99%; in assay [2], 88%; in assay [3], 45%; in assay [5] it was 88%; in assay [6], 73%; in assay [7], 87%. For the same compound, the inhibition at 1 µM in assay [8] was found to be 99%. In addition, the “α1 [%]” value in assay [4] was found to be 27%.

Take `O=S(=O)(NCC1CN(CCOc2cccc3ccccc23)C1)c1cc2ccc(Cl)cc2s1` [Compound 164, 6-Chloro-N-[[1-[2-(1-naphthyloxy)ethyl]azetidin-3-yl]methyl]-benzothiophene-2-sulphonamide]: the inhibition at 1 µM turned out to be 98% in assay [1]; 83% in assay [2]; 34% in assay [3]; 92% in assay [5]; 78% in assay [6]; 94% in assay [7]. In addition, the inhibition at 1 µM in assay [8] stood at 102%. Also, in assay [4], the “α1 [%]” value is 13%.

Turning to `O=S(=O)(NCC1CN(CCOc2cccc3ccccc23)C1)c1ccc2cc(Cl)ccc2c1` [Compound 165, 6-Chloro-N-[[1-[2-(1-naphthyloxy)ethyl]azetidin-3-yl]methyl]naphthalene-2-sulphonamide], the inhibition at 1 µM in assay [1] stood at 100%; in assay [2] it was 87%; in assay [3] it was 111%; in assay [5], 105%; in assay [6], 66%; in assay [7], 97%. For the same compound, the inhibition at 1 µM in assay [8] is 99%. Further, the “α1 [%]” value in assay [4] was 15%.

As to `Cc1c(S(=O)(=O)NCC2CN(CCOc3cccc4ccccc34)C2)sc2ccc(F)cc12` [Compound 166, 5-Fluoro-3-methyl-N-[[1-[2-(1-naphthyloxy)ethyl]azetidin-3-yl]methyl]benzothiophene-2-sulphonamide], the inhibition at 1 µM was determined as 101% in assay [1]; 78% in assay [2]; 32% in assay [3]; 97% in assay [5]; 82% in assay [6]; 98% in assay [7]. Moreover, in assay [8], the inhibition at 1 µM is 100%. The “α1 [%]” value in assay [4] came to 23%.

With `Cc1c(S(=O)(=O)NCC2CN(CCOc3cccc4ccccc34)C2)sc2ccc(Cl)cc12` [Compound 167, 5-Chloro-3-methyl-N-[[1-[2-(1-naphthyloxy)ethyl]azetidin-3-yl]methyl]benzothiophene-2-sulphonamide], the inhibition at 1 µM in assay [1] stood at 97%; in assay [2], 75%; in assay [3] it was 31%; in assay [5], 90%; in assay [6], 60%; in assay [7], 94%. Also, the inhibition at 1 µM in assay [8] was found to be 95%. The “α1 [%]” value in assay [4] stood at 3%.

For the compound `O=S(=O)(NCC1CN(CCOc2cccc3ccccc23)C1)c1cccc2ccccc12` [Compound 168, N-[[1-[2-(1-Naphthyloxy)ethyl]azetidin-3-yl]methyl]naphthalene-1-sulphonamide], the inhibition at 1 µM in assay [1] was found to be 94%; in assay [2], 79%; in assay [3], 25%; in assay [5], 92%; in assay [6], 64%; in assay [7] it was 93%. The inhibition at 1 µM in assay [8] stood at 96%. Further, in assay [4], the “α1 [%]” value is 31%.

Turning to `Cn1ccc2cc(S(=O)(=O)NCC3CN(CCOc4cccc5ccccc45)C3)ccc21` [Compound 169, 1-Methyl-N-[[1-[2-(1-naphthyloxy)ethyl]azetidin-3-yl]methyl]indole-5-sulphonamide], the inhibition at 1 µM in assay [1] amounted to 100%; in assay [2], 84%; in assay [3], 75%; in assay [5], 93%; in assay [6], 84%; in assay [7], 100%. Further, in assay [8], the inhibition at 1 µM came to 69%. In addition, in assay [4], the “α1 [%]” value turned out to be 74%.

Values taken from patent US20140135310A1, “SULPHONAMIDE DERIVATIVES OF ALICYCLIC AMINES FOR THE TREATMENT OF CENTRAL NERVOUS SYSTEM DISEASES” (Adamed Sp. z o.o., priority 2011, published 2014).
